{"source": "paper PMC7537338", "about": "“CD47/SIRPα blocking peptide identification and synergistic effect with irradiation for cancer immunotherapy” (Journal for Immunotherapy of Cancer, 2020)", "key": {"[1]": {"molecular_target": "T1, human CD47/SIRPα interaction (Homo sapiens, UniProt Q08722)", "T1 construct": "Human or mouse CD47-IgV-Domain-hIg fusion proteins (20 nM, Sino Biological, China); purchased Sino Biological (hIg fusion); ACROBiosystems (biotinylated human CD47); host or cells: SIRPα partner: CHO cells stably expressing human SIRPα", "T1 sequence (Q08722 19-127 limits assumed)": "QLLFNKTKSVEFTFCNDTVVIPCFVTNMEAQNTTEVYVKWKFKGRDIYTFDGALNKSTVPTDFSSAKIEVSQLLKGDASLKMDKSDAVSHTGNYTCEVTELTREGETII", "assay": "Blocking assay, human CD47 protein binding to CHO cells expressing human SIRPα (flow cytometry)", "conditions": "for Blocking rate relative to pep-20 (%): blockade of peptides to hCD47 relative to parent pep-20, Table S4", "protocol": "(§1) Human or mouse CD47-IgV-Domain-hIg fusion proteins (20 nM, Sino Biological, China), or biotinylated human CD47 protein (20 nM, ACROBiosystems, USA) was incubated with titrating concentrations of peptides or anti-human CD47 antibody (B6H12) in phosphate-buffered saline (PBS, pH 7.4) for 1 hour at 4°C. The mixture was incubated with human or mice SIRPα overexpressed Chinese hamster ovary cells for 30 min at 4°C, washed to remove unbound mixtures and phycoerythrin (PE)-conjugated goat anti-human IgG or PE-conjugated streptavidin was incubated (eBioscience, USA). Cells were then analyzed by flow cytometry (BD Biosciences, USA). The IC50 was determined from sigmoidal dose response curves illustrated by GraphPad Prism."}, "[2]": {"molecular_target": "T2, human CD47-IgV-Domain protein (Homo sapiens, UniProt Q08722)", "T2 construct": "Human or mouse CD47-IgV-Domain proteins were labeled with NT-647 dye", "T2 sequence (Q08722 19-127 limits assumed)": "as above", "assay": "MST binding assay to human CD47-IgV-Domain protein", "protocol": "(§2) Human or mouse CD47-IgV-Domain proteins were labeled with NT-647 dye following the microscale thermophoresis (MST) assay protocol, and the labeled protein used for each assay was about 50 to 200 nM. Unlabeled peptides or ligand protein solution was diluted for appropriate concentration serially in buffer (50 mM Tris, 150 mM NaCl, 10 mM MgCl2, 0.05% Tween-20, 0.5% DMSO and pH 7.5). The labeled proteins were then added to peptides or ligand protein solutions by 1∶1 (v/v). The samples were loaded into silica capillaries after incubation at room temperature for 30 min. Binding constants were determined by the MST assay according to manufacturer’s instructions with 20% or 40% light emitting diode (LED) power, 40% MST power at 25°C (Nano Temper, Monolith NT.115, Germany). Data analysis were performed by using a Nanotemper Analysis software."}, "[3]": {"assay": "Solubility as observed in the binding assay", "format": "physicochemical", "conditions": "higher titrating concentrations for the MST binding assay could not be used", "protocol": "To assess the affinity of these candidate peptides toward human CD47, the preliminary binding assay was performed. […] In addition, due to the presence of consensus sequences, it can be hypothesized that the peptides pep-5, pep-9 and pep-19 may have higher affinities.\nTable S1. Amino acid sequences and binding activity of selected peptides.\nName Peptide sequence Frequency (n/43) KD (μM)\nPeptides targeting hCD47 were obtained by bio-panning, the affinity of peptides to hCD47"}, "[4]": {"molecular_target": "T3, mouse CD47/SIRPα interaction (Mus musculus, UniProt Q61735)", "T3 construct": "Human or mouse CD47-IgV-Domain-hIg fusion proteins (20 nM, Sino Biological, China); purchased Sino Biological; host or cells: SIRPα partner: CHO cells stably expressing mouse SIRPα", "T3 sequence (Q61735 19-125 limits assumed)": "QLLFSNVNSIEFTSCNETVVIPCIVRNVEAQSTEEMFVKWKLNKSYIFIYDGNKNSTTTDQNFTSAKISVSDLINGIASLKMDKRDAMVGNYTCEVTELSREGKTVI", "assay": "Blocking assay, mouse CD47-IgV-Domain-hIg binding to CHO cells expressing mouse SIRPα (flow cytometry)", "conditions": "figure 1D, approximately", "protocol": "as §1"}, "[5]": {"assay": "Pharmacokinetic assay in vivo", "conditions": "C57BL/6, mouse, plasma, iv, 40 mg/kg", "experimental": "(E, F) The pharmacokinetic analysis\n(§3) of pep-20 and pep- 20-D12. The plasma concentration-time curve of pep-20 (E) and\nData are represented as means ± SEM.\nPharmacokinetic assays in vivo 140\n(§4) C57BL/6 mice with weight of 18-20 g were administrated with a single 141\n(§5) intravenous dose of 40 mg/kg of peptides. Blood samples were collected an d 142\n(§6) centrifuged at 8000 rpm for 10 min at the indicated intervals. Plasma wa s 143\n(§7) further mixed with 10% HClO4 at a ratio of 2∶1 (v/v) and centrifuged at 16,000 144\n(§8) rpm for 10 min. The supernatant was analyzed by RP-HPLC. The 145 pharmacokinetic parameters of peptides were determined by 146 noncompartmental analysis (NCA) using Phoenix WinNonlin software program 147 5.2.1 (Certara, Princeton, USA). The maximum plasma concentration Cmax and 148 elimination half-life (T1/2) were calculated."}, "[6]": {"molecular_target": "T4, mouse CD47-IgV-Domain protein (Mus musculus, UniProt Q61735)", "T4 construct": "Human or mouse CD47-IgV-Domain proteins were labeled with NT-647 dye", "T4 sequence (Q61735 19-125 limits assumed)": "T3 sequence (Q61735 19-125 limits assumed)", "assay": "MST binding assay to mouse CD47-IgV-Domain protein", "conditions": "figure 1B, read-out: KD, pep-20/mCD47", "protocol": "as §2"}, "[7]": {"system": "C57BL/6 naïve mice", "assay": "Mouse toxicity assays in normal mice", "format": "in vivo, C57BL/6 mice", "protocol": "toxicity analysis. Normal C57BL/6 mice were injected s.c. with 2 mg/kg of pep-20 or normal saline as the negative control daily from day 1 to 14 ( n = 5). On days 0 and 14, hematologic parameters were analyzed. Red blood cell count (A), hemoglobin level ( B) have no significant difference between pep-20 group and control group. (C) Representative H&E staining images of pep-20 treated. Normal C57BL/6 mice were injected s.c. with 2 mg/kg of pep-20 or normal saline as the negative control daily for 14 days (n = 5). The mouse primary organs of heart, liver, spleen, lung, kidney and thymus […]\nTable S2. Organ coefficients analysis of pep-20-treated mice.\nHeart Liver Spleen Lung Kidney thymus\nNormal C57BL/6 mice were injected s.c. with 2 mg/kg pep-20 or normal saline as the negative control daily for 14 days (n = 5). The mice organ tissues were stripped for organ […]\nTable S3. Hepatic damage analysis of pep-20-treated mice. […]\nnegative control daily for 14 days (n = 5). Mice serum samples were collected and hepatic damage analysis were performed for standard aspartate aminotransferase assay (AST) and alanine aminotransferase assay (ALT).\n111 Mouse toxicity assays\n112 Normal C57BL/6 mice were injected s.c. with 2 mg/kg peptides or normal 113 saline as the negative control daily from day 1 to 14 (n = 5). On days 0 and 14, 114 mice blood samples were collected via retro-orbital bleed. […]\n116 Hematologic and blood biochemical parameters were analyzed by ADVIA 117 2120i Hematology Analyzer (Siemens, Germany). […]"}, "[8]": {"assay": "in vivo", "conditions": "C57BL/6, mouse, iv, 40 mg/kg", "experimental": "(E, F) The pharmacokinetic analysis\nas §3\nData are represented as means ± SEM.\nPharmacokinetic assays in vivo 140\nas §4, §5, §6, §7, §8"}, "[9]": {"conditions": "preliminary binding assay, Table S1, NT-647 labeled hCD47, 50 mM Tris, 150 mM NaCl, 10 mM MgCl2, 0.05% Tween-20, 0.5% DMSO, pH 7.5, 25°C, read-out: KD"}, "[10]": {"conditions": "2 mg/kg s.c. daily over 14 days, days 0 and 14, n = 5"}}, "note": "Where two headings read alike, the source gives them in different places. Where a SMILES comes first, the peptide text is derived from it. Where no end group is shown, it is not given here. [ ]: non-standard residue; d: D form."}
{"compound": "C[C@H](NC(=O)[C@H](CO)NC(=O)[C@H](Cc1c[nH]c2ccccc12)NC(=O)[C@@H](C)N)C(=O)N[C@H](C(=O)N[C@@H](Cc1c[nH]c2ccccc12)C(=O)N[C@@H](CO)C(=O)N[C@@H](CC(N)=O)C(=O)N[C@@H](Cc1ccc(O)cc1)C(=O)N[C@@H](Cc1c[nH]c2ccccc12)C(=O)N[C@H](CCCNC(=N)N)C(=O)N[C@H](Cc1c[nH]cn1)C(=O)O)[C@@H](C)O", "note": "[pep-20-D3] (H-[dA]WSATWSNYW[dR][dH]-OH)", "values": [{"measurement": "Blocking rate relative to pep-20 (%)", "setting": "[1]", "result": 75, "unit": "%"}]}
{"compound": "ASYTDWWRNRLQ [pep-18]", "values": [{"measurement": "Kd", "setting": "[2]; [9]", "result": "161 ± 111", "unit": "µM"}]}
{"compound": "VSPLELADNPMY [pep-10]", "values": [{"measurement": "Kd", "setting": "[2]; [9]", "result": "49.9 ± 54.8", "unit": "µM"}]}
{"compound": "GTYSNYVSHINN [pep-9]", "values": [{"measurement": "Solubility", "setting": "[3]", "result": "poor solubility"}]}
{"compound": "GNKLTQLAASMM [pep-4]", "values": [{"measurement": "Kd", "setting": "[2]; [9]", "result": 5.32, "unit": "µM"}]}
{"compound": "KLLPSLPSVSRN [pep-14]", "values": [{"measurement": "Kd", "setting": "[2]; [9]", "result": "> 500", "unit": "µM"}]}
{"compound": "VSYKEHDMLYSF [pep-19]", "values": [{"measurement": "Solubility", "setting": "[3]", "result": "poor solubility"}]}
{"compound": "TDLRYKEHYLYL [pep-3]", "values": [{"measurement": "Kd", "setting": "[2]; [9]", "result": 0.67, "unit": "µM"}]}
{"compound": "ASFSSYNRGYMY [pep-15]", "values": [{"measurement": "Kd", "setting": "[2]; [9]", "result": "14.7 ± 20", "unit": "µM"}]}
{"compound": "LYAGKLERISRG [pep-16]", "values": [{"measurement": "Kd", "setting": "[2]; [9]", "result": "10.7 ± 8.89", "unit": "µM"}]}
{"compound": "LPHYIYETLPVR [pep-5]", "values": [{"measurement": "Solubility", "setting": "[3]", "result": "poor solubility"}]}
{"compound": "C[C@H](NC(=O)[C@H](CO)NC(=O)[C@H](Cc1c[nH]c2ccccc12)NC(=O)[C@@H](C)N)C(=O)N[C@H](C(=O)N[C@@H](Cc1c[nH]c2ccccc12)C(=O)N[C@@H](CO)C(=O)N[C@@H](CC(N)=O)C(=O)N[C@@H](Cc1ccc(O)cc1)C(=O)N[C@H](Cc1c[nH]c2ccccc12)C(=O)N[C@H](CCCNC(=N)N)C(=O)N[C@H](Cc1c[nH]cn1)C(=O)O)[C@@H](C)O", "note": "[pep-20-D4] (H-[dA]WSATWSNY[dW][dR][dH]-OH)", "values": [{"measurement": "Blocking rate relative to pep-20 (%)", "setting": "[1]", "result": 96, "unit": "%"}]}
{"compound": "DRIPKIPGLPVL [pep-6]", "values": [{"measurement": "Kd", "setting": "[2]; [9]", "result": "9.27 ± 15.1", "unit": "µM"}]}
{"compound": "AWSATWSNYWRH [pep-20]", "values": [{"measurement": "IC50", "setting": "[4]", "result": "~12", "unit": "µM"}, {"measurement": "Cmax", "setting": "[5]", "result": 33600, "unit": "ng/mL"}, {"measurement": "Kd", "setting": "[6]", "result": "3.63 ± 1.71", "unit": "µM"}, {"measurement": "Kd", "setting": "[2]; human CD47-IgV-Domain protein, figure 1A, read-out: KD, pep-20/hCD47", "result": "2.91 ± 1.04", "unit": "µM"}, {"measurement": "Kd", "setting": "[2]; [9]", "result": "3.19 ± 2.27", "unit": "µM"}, {"measurement": "Organ coefficient, Spleen", "setting": "[7]; 2 mg/kg s.c. daily for 14 days, n = 5, NS 0.3±0.04", "result": "0.31±0.3"}, {"measurement": "Organ coefficient, thymus", "setting": "[7]; 2 mg/kg s.c. daily for 14 days, n = 5, NS 0.42±0.06", "result": "0.36±0.07"}, {"measurement": "Organ coefficient, Heart", "setting": "[7]; 2 mg/kg s.c. daily for 14 days, n = 5, NS 0.55±0.03", "result": "0.58±0.05"}, {"measurement": "Organ coefficient, Lung", "setting": "[7]; 2 mg/kg s.c. daily for 14 days, n = 5, NS 0.76±0.19", "result": "0.77±0.18"}, {"measurement": "Organ coefficient, Kidney", "setting": "[7]; 2 mg/kg s.c. daily for 14 days, n = 5, NS 1.15±0.05", "result": "1.14±0.06"}, {"measurement": "Organ coefficient, Liver", "setting": "[7]; 2 mg/kg s.c. daily for 14 days, n = 5, NS 5.02±0.3", "result": "5.01±0.16"}, {"measurement": "Histopathology, H&E staining of major organs", "setting": "[7]; 2 mg/kg s.c. daily for 14 days, heart, liver, spleen, lung, kidney, thymus", "result": "no abnormalities"}, {"measurement": "Hemoglobin level", "setting": "[7]; [10]", "result": "no significant differences"}, {"measurement": "Red blood cell count", "setting": "[7]; [10]", "result": "no significant differences"}, {"measurement": "ALT", "setting": "[7]; serum, 2 mg/kg s.c. daily for 14 days, n = 5, NS 6.79±0.92", "result": "7.03±0.86"}, {"measurement": "AST", "setting": "[7]; serum, 2 mg/kg s.c. daily for 14 days, n = 5, NS 23.40±4.41", "result": "28.41±5.08"}, {"measurement": "half-life", "setting": "[8]", "result": 35.4, "unit": "min"}, {"measurement": "IC50", "setting": "[1]; 20 nM human CD47-IgV-Domain-hIg, CHO cells expressing human SIRPα, flow cytometry, figure 1C", "result": 24.6, "unit": "µM"}, {"measurement": "Blocking rate relative to pep-20 (%)", "setting": "[1]", "result": 100, "unit": "%"}]}
{"compound": "C[C@H](NC(=O)[C@H](CO)NC(=O)[C@H](Cc1c[nH]c2ccccc12)NC(=O)[C@@H](C)N)C(=O)N[C@H](C(=O)N[C@@H](Cc1c[nH]c2ccccc12)C(=O)N[C@@H](CO)C(=O)N[C@@H](CC(N)=O)C(=O)N[C@@H](Cc1ccc(O)cc1)C(=O)N[C@@H](Cc1c[nH]c2ccccc12)C(=O)N[C@@H](CCCNC(=N)N)C(=O)N[C@H](Cc1c[nH]cn1)C(=O)O)[C@@H](C)O", "note": "[pep-20-D2] (H-[dA]WSATWSNYWR[dH]-OH)", "values": [{"measurement": "Blocking rate relative to pep-20 (%)", "setting": "[1]", "result": 83, "unit": "%"}]}
